Reference: patent US8653114B2, “O-cyclopropylcyclohexyl-carboxanilides and their use as fungicides” (priority 2010, dated 2014)
Read-outs that look alike come from different tables or passages of the source.

What was measured:
Venturia inaequalis = test: Venturia test (apples) / preventive; format: in vivo; conditions: 100 ppm of active ingredient, evaluated 10 days after inoculation
Experimental: (§1) Venturia Test (Apples)/Preventive [table] To produce a suitable preparation of active compound, 1 part by weight of active compound is mixed with the stated amounts of solvent and emulsifier, and the concentrate is diluted with water to the desired concentration. To test for preventive activity, young plants are sprayed with the preparation of active compound at the stated rate of application.

[1] = system: Blumeria graminis f. sp. hordei; test: Blumeria test (barley) / preventive; format: in vivo; conditions: 500 ppm of active ingredient, evaluated 7 days after inoculation
Experimental: (§2) Blumeria Test (Barley)/Preventive [table] To produce a suitable preparation of active compound, 1 part by weight of active compound or active compound combination is mixed with the stated amounts of solvent and emulsifier, and the concentrate is diluted with water to the desired concentration. To test for preventive activity, young plants are sprayed with the preparation of active compound or active compound combination at the stated rate of application. After the spray coating has been dried, the plants are dusted with spores of Blumeria graminis f. sp. hordei.

Sphaerotheca fuliginea = test: Sphaerotheca test (cucumber) / preventive; format: in vivo; conditions: 500 ppm of active ingredient, evaluated 7 days after inoculation
Experimental: as §1, with “Sphaerotheca” for “Venturia”, “(Cucumber)/Preventive” for “(Apples)/Preventive”, “application. One day after this treatment, the plants are inoculated with an aqueous spore suspension of Sphaerotheca fuliginea. Then the plants are placed in a greenhouse at approximately 23° C. and a relative atmospheric humidity of approximately 70%.” for “application.”

Septoria tritici = test: Septoria tritici-test (wheat) / preventive; format: in vivo; conditions: 500 ppm of active ingredient, evaluated 21 days after inoculation
Experimental: as §2, with “Septoria tritici-Test (Wheat)/Preventive” for “Blumeria Test (Barley)/Preventive”, “sprayed” for “dusted”, “a spore suspension” for “spores”, “Septoria tritici.” for “Blumeria graminis f. sp. hordei.”

Puccinia triticina = test: Puccinia triticina-test (wheat) / preventive; format: in vivo; conditions: 500 ppm of active ingredient, evaluated 8 days after inoculation
Experimental: as §2, with “Puccinia triticina-Test (Wheat)/Preventive” for “Blumeria Test (Barley)/Preventive”, “sprayed” for “dusted”, “a spore suspension” for “spores”, “Puccinia triticina.” for “Blumeria graminis f. sp. hordei.”

[2] = log P by HPLC on reversed phase columns (EEC directive 79/831 Annex V.A8); format: physicochemical; conditions: for chromatographic logP: reversed phase HPLC columns
Experimental: Measurement of log P values was performed according EEC directive 79/831 Annex V.A8 by HPLC (High Performance Liquid Chromatography) on reversed phase columns with the following methods:
^[b] measurement of LC-MS was done at pH 2.7 with 0.1% formic acid in water and with acetonitrile (contains 0.1% formic acid) as eluent with a linear gradient from 10% acetonitrle to 95% acetonitrile.

Alternaria solani = test: Alternaria test (tomato) / preventive; format: in vivo; conditions: 500 ppm of active ingredient, evaluated 7 days after inoculation
Experimental: as §1, with “Alternaria” for “Venturia”, “(Tomato)/Preventive” for “(Apples)/Preventive”, “application. One day after this treatment, the plants are inoculated with an aqueous spore suspension of Alternaria solani.” for “application.”

[3] = system: Fusarium nivale (var. majus); test: Fusarium nivale (var. majus)-test (wheat) / preventive; format: in vivo; conditions: 500 ppm of active ingredient, evaluated 5 days after inoculation
Experimental: as §2, with “Fusarium nivale (var. majus)-Test (Wheat)/Preventive” for “Blumeria Test (Barley)/Preventive”, “slightly injured by using a sandblast and afterwards they are sprayed” for “dusted”, “a conidia suspension” for “spores”, “Fusarium nivale (var. majus).” for “Blumeria graminis f. sp. hordei.”

Pyrenophora teres = test: Pyrenophora test (barley) / preventive; format: in vivo; conditions: 500 ppm of active ingredient, evaluated 7-9 days after inoculation
Experimental: as §1, with “Pyrenophora” for “Venturia”, “(Barley)/Preventive” for “(Apples)/Preventive”, “application. One day after this treatment, the plants are inoculated with an aqueous spore suspension of Pyrenophora teres.” for “application.”

Podosphaera leucotricha = test: Podosphaera test (apples) / preventive; format: in vivo; conditions: 100 ppm of active ingredient, evaluated 10 days after inoculation
Experimental: Podosphaera Test (Apples)/Preventive [table] To produce a suitable preparation of active compound, 1 part by weight of active compound is mixed with the stated amounts of solvent and emulsifier, and the concentrate is diluted with water to the desired concentration. To test for preventive activity, young plants are sprayed with the preparation of active compound at the stated rate of application. After the spray coating has dried on, the plants are inoculated with an aqueous spore suspension of the causal agent of apple mildew (Podosphaera leucotricha). The plants are then placed in a greenhouse at approximately 23° C. and a relative atmospheric humidity of approximately 70%.

Row | chromatographic logP ([2]; pH 2.7, HPLC/LC-MS at pH 2.7, 0.1% formic acid in water / acetonitrile gradient, read-out: Log P[b]) | chromatographic logP ([2]; pH 2.7, acid, product isolated with a purity of 87% LC-MS, read-out: log P (acid)) | Log P[b] ([2]; HPLC/LC-MS at pH 2.7, 0.1% formic acid in water / acetonitrile gradient) | SMILES | Eff. % (Venturia inaequalis) [%] | Eff. % [1] [%] | Eff. % (Sphaerotheca fuliginea) [%] | Eff. % (Septoria tritici) [%] | Eff. % (Puccinia triticina) [%] | Eff. % (Alternaria solani) [%] | Eff. % [3] [%] | Eff. % (Pyrenophora teres) [%] | Eff. % (Podosphaera leucotricha) [%]
1 | 4.02 | 4.02 | – | Cn1nc(C(F)F)c(C(=O)NC2CCCCC2C2CC2C2CC2)c1F (single isomer, unassigned) [Example 1, N-{2-[1,1′-bi(cyclopropyl)-2-yl]cyclohexyl}-3-(difluoromethyl)-5-fluoro-1-methyl-1H-pyrazole-4-carboxamide] | 100 | 100 | 100 | 90 | 100 | 100 | 100 | 100 | 100
2 | – | – | 3.84 | Cn1nc(C(F)F)c(C(=O)NC2CCCCC2C2CC2C2CC2)c1F (single isomer, unassigned) [Example 2, N-{2-[1,1′-bi(cyclopropyl)-2-yl]cyclohexyl}-3-(difluoromethyl)-5-fluoro-1-methyl-1H-pyrazole-4-carboxamide] | 100 | 100 | 100 | 90 | 100 | 100 | 100 | 100 | 100
